Experimental data reported in publication PMC8958510 (Journal of Medicinal Chemistry, 2022).

Columns and labels:
[1] = Microsomal stability, mouse liver microsomes; type: in vitro ADME
Protocol: (§1) Microsomal stability screen. The microsomal stability of the target compounds was
(§2) determined at the Innopharma Drug Screening and Pharmacogenomics Platform (Santiago de
(§3) Compostela, Spain). The human, rat and mice pooled microsomes, with a protein content of 20 mg mL‒1, were purchased from Tebu-Xenotech. The compounds were incubated in a 96-well microplate at 37 °C with the microsomes in 50 mM phosphate buffer (pH = 7.4) containing as cofactors 30 mM MgCl2, 10 mM NADP, 100 mM glucose-6-phosphate and 40
(§4) Samples (75 µL) were taken from each well at 0, 10, 20, 40 and 60 min and transferred to a microplate. 4 °C Acetonitrile (75 µL) and internal standard (rolipram) were then added for inactivating the microsomes, and water with 0.5% formic acid (30 µL) was subsequently added for improving the chromatographic conditions, keeping the mixtures at 4 °C. The plate was centrifuged at 46,000 g for 30 min at 15 °C and supernatants were taken and analyzed in a UPLC-MS/MS system (UPLC QSM Waters Acquity) using reverse phase Acquity UPLC® HSST3 1.7 μm (2.1 mm × 50 mm, Waters) as the stationary phase, 0.1% formic acid in water (A) / 0.1% formic acid in acetonitrile (B) as the mobile phase, a flow of 0.8 mL min‒1, and the
(§5) The metabolic stability of the compounds was calculated from the logarithm of the remaining compound at each of the time points studied.

[2] = PAMPA-BBB assay for brain permeability
Protocol: PAMPA-BBB assay for brain permeability. The brain permeability (Pe) of the target
compounds was assessed by an in vitro parallel artificial membrane permeability assay for
blood‒brain barrier penetration (PAMPA-BBB assay),12 which uses a lipid extract of porcine
brain membrane as a BBB model. The assay was validated by comparing experimental and
reported Pe values of a set of fourteen commercial drugs (Table S2 of the Supporting
On the basis of this equation and the limits established by Di et al. for BBB
independent experiments, each performed in triplicate, were carried out for each compound.

recombinant mouse AChE = target: T1, recombinant mouse AChE (Mus musculus, UniProt P21836); assay: Mouse acetylcholinesterase inhibition, Ellman's method; type: biochemical
T1 construct: purchased Bio-Techne, Milan, Italy
T1 sequence (P21836 32-614): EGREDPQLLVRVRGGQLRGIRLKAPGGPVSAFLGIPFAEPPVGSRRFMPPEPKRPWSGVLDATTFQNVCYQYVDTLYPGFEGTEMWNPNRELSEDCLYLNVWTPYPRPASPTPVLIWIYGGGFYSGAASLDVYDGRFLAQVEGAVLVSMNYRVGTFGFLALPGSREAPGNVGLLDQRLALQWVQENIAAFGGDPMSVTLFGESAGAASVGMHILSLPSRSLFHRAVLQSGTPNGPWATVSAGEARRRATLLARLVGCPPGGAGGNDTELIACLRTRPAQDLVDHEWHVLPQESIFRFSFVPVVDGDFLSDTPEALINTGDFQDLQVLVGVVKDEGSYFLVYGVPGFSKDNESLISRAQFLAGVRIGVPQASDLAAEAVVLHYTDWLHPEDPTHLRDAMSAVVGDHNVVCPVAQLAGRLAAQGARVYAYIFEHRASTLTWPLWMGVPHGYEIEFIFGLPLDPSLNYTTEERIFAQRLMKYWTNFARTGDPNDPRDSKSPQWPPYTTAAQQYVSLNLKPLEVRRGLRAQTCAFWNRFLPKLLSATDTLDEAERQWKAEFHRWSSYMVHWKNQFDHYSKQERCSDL
Protocol: (§6) Human and mouse acetylcholinesterase and human butyrylcholinesterase inhibition
(§7) assay. The inhibitory activity of the target compounds toward recombinant human AChE
(§8) (Sigma-Aldrich, Milan, Italy), recombinant mouse AChE (Bio-Techne, Milan, Italy) and
(§9) human serum BChE (Sigma-Aldrich, Milan, Italy) was assessed by Ellman’s method,8 using
(§10) Stock solutions of the AChEs were prepared by
(§11) dissolving enzyme lyophilized powder (hAChE) or diluting the enzyme commercial solution
(§12) (mAChE) in 0.1 M potassium phosphate (pH 8.0) containing 0.1% Triton X-100, whereas the
(§13) stock solution of hBChE was prepared in 0.1% aq. gelatin and the stock solutions of the
(§14) compounds to be tested were made in MeOH (2-4 mM). The assay solution consisted of 0.02
(§15) unit mL‒1 of the enzyme, 340 M 5,5’-dithiobis(2-nitrobenzoic acid), and 550 M of the
(§16) substrate acetylthiocholine iodide (for AChE assay) or butyrylthiocholine iodide (for BChE
(§17) assay) in 0.1 M potassium phosphate (pH 8.0). Blank solutions containing all components
(§18) except the enzymes were prepared to account for the non-enzymatic hydrolysis of the
(§19) Prior the addition of the substrate, the assay solutions were incubated at 37 °C for 20 min.
(§20) After the addition of the substrate, cuvettes were rapidly transferred into a Jasco V-530
(§21) double beam spectrophotometer equipped with thermostated cuvette holders (37 °C), in order
(§22) for 240 s. For each tested compound, five increasing concentrations were assayed in order to
(§23) achieve inhibition percentages of 20‒80%. Each concentration was assayed in triplicate. IC50
(§24) values were calculated from the inhibition plot (% inhibition vs log[inhibitor]) and are
(§25) expressed as mean ± SEM. Each IC50 value is the average of at least two experiments, each

recombinant human AChE = target: T2, recombinant human AChE (Homo sapiens, UniProt P22303); type: biochemical; conditions: recombinant human AChE; mean ± SEM; read-out: hAChE IC50
T2 construct: purchased Sigma-Aldrich, Milan, Italy
T2 sequence (P22303 32-614): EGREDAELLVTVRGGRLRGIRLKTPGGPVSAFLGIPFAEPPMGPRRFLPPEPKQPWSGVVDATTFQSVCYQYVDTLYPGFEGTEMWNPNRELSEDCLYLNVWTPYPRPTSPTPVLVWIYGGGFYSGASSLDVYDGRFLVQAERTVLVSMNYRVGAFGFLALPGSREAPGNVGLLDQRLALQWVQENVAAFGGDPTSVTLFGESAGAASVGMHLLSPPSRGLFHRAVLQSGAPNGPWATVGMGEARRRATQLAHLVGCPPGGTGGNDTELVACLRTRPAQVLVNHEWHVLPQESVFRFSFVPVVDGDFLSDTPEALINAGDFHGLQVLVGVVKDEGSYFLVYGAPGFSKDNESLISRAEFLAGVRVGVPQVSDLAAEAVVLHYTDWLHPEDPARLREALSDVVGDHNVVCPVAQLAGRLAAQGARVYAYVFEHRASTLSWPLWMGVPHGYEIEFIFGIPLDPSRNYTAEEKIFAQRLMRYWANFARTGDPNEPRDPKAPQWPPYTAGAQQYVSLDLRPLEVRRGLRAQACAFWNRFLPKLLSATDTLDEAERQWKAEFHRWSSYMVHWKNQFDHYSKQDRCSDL
Protocol: as §6, §7, §8, §9, §10, §11, §12, §13, §14, §15, §16, §17, §18, §19, §20, §21, §22, §23, §24, §25

[3] = target: PAS of Electrophorus electricus AChE (EeAChE) (Electrophorus electricus, UniProt O42275); assay: Propidium displacement studies (PAS of AChE); type: binding; set-up: purchased Sigma-Aldrich type VI-S; conditions: mean ± SD of two independent experiments, read-out: KD (displacement of propidium from PAS)
Sequence of PAS of Electrophorus electricus AChE (EeAChE) (O42275 24-633): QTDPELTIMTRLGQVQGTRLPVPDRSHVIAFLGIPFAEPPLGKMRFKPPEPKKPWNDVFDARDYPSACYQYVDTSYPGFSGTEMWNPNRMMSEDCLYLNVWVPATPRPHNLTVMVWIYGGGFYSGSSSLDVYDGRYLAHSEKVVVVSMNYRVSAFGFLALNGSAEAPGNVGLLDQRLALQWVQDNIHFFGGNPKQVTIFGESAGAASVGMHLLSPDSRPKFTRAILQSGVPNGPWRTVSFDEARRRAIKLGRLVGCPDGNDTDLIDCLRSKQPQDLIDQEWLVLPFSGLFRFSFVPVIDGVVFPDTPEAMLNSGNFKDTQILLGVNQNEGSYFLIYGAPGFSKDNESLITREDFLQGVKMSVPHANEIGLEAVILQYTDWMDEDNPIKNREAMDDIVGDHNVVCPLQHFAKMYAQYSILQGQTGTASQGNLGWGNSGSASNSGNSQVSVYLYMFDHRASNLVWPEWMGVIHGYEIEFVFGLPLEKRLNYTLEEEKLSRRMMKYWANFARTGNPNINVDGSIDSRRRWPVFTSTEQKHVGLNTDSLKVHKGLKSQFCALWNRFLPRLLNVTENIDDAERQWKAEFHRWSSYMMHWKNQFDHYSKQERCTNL
Protocol: Propidium Displacement Studies.
electricus AChE (EeAChE) (type VI-S, Sigma-Aldrich) was determined using the PAS-
specific ligand propidium iodide (P) (Sigma-Aldrich), following a described procedure.9
Complexation of propidium iodide and AChE leads to a shift in the excitation wavelength.9
Fluorescence intensity was monitored with a Jasco 6200 spectrofluorometer (Jasco Europe,
Italy) using a 0.5 mL quartz cuvette at rt. EeAChE (2 μM) was first incubated with 8 mM
propidium iodide in 1 mM Tris-HCl, pH 8.0 at rt.
prepared in MeOH. In the back titration experiments of the propidium‒AChE complex by
fluorescence emission was determined. KD values were obtained after processing the raw data
values are expressed as mean ± standard deviation (SD) of two independent experiments.

recombinant mouse sEH = target: T3, recombinant mouse sEH (Mus musculus, UniProt P34914); conditions: read-out: msEH IC50, average of three replicates
T3 sequence (P34914 1-554): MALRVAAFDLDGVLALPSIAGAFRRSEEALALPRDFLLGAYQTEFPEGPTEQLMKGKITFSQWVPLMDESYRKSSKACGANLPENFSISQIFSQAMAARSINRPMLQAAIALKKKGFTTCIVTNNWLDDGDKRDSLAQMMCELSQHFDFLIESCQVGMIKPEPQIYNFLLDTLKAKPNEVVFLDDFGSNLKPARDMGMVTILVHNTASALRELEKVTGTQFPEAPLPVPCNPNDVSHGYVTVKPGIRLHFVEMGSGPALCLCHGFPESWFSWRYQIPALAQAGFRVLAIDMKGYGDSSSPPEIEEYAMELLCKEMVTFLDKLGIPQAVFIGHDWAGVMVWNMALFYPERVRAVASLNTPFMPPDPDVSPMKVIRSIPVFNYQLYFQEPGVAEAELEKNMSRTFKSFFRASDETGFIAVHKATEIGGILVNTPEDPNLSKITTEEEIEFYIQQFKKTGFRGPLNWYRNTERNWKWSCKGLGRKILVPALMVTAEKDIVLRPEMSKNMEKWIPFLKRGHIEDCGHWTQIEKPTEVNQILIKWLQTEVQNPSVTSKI
Protocol: Human and mouse soluble epoxide hydrolase inhibition assay. The inhibitory activity of
the target compounds toward human and mouse sEH was determined by a fluorescence-based
assay, using purified recombinant human or mouse sEH proteins and CMNPC as a fluorescent
substrate.6 The enzymes were incubated at 30 °C with the inhibitors ([I]final = 0.4-100,000
nM) for 5 min in 100 mM sodium phosphate buffer (200 µL, pH 7.4) containing 0.1 mg mL‒1
of BSA and 1% of DMSO. The substrate (CMNPC) was then added ([S]final = 5 µM). Activity
was assessed by measuring the appearance of the fluorescent 6-methoxynaphthaldehyde
(Molecular Devices). Results were obtained by regression analysis from a linear region of the
curve and are given as IC50 values, i.e., the concentration of the compound that reduces the
sEH activity by 50%. All measurements were performed in triplicate and the mean is

[4] = Microsomal stability, human liver microsomes; type: in vitro ADME
Protocol: as §1, §2, §3, §4, §5

With O=C(Nc1ccc(OC(F)(F)F)cc1)NC1CCN(C(=O)CCCCNc2c3c(nc4cc(Cl)ccc24)CCCC3)CC1 [12c, 1-{1-{5-[(6-Chloro-1,2,3,4-tetrahydroacridin-9-yl)amino]pentanoyl}piperidin-4-yl}-3-[4-(trifluoromethoxy)phenyl]urea] the “amount of compound, mouse liver microsomes” value ([1]; after 10 min) was 38%, the “amount of compound, mouse liver microsomes” value ([1]; after 20 min) was 4% and the microsomal CLint at 1 h, 0.05 µM ([1]; mouse, liver microsomes (pooled), pH 7.4, 37 °C) was 155 µL/min/mg. The half-life at 1 h, 0.05 µM ([1]; mouse, liver microsomes (pooled), pH 7.4, 37 °C, read-out: t1/2, mouse microsomes) was 4 min, the remaining at 1 h, 0.05 µM ([1]; mouse, liver microsomes (pooled), pH 7.4, after 1 h of incubation at 37 °C, read-out: % remaining compound, mouse microsomes) was 2% and the BBB permeation class ([2]; PAMPA-BBB prediction) was “CNS+ (High permeation, CNS+: Pe > 5.2)”. The Papp ([2]; pig, PAMPA) was 84 ± 7 nm/s, the “mAChE potency relative to 6-chlorotacrine” value (recombinant mouse AChE) was 5 fold and the “potency toward mAChE relative to hAChE” value (recombinant mouse AChE) was 3 fold. For the same compound, the IC50 (recombinant mouse AChE; recombinant mouse AChE, mean ± SEM, read-out: mAChE IC50) was 0.00412 ± 0.00023 µM, the IC50 (recombinant human AChE) was 0.0129 ± 0.0016 µM and the Kd [3] was 3.95 ± 0.35 µM. The IC50 (recombinant mouse sEH) was 0.0225 µM, the “% compound remaining non-metabolized, human microsomes” value ([4]; after 10 min at 37 °C) was 82% and the “% compound remaining non-metabolized, human microsomes” value ([4]; after 20 min at 37 °C) was 74%. For the same compound, the microsomal CLint at 1 h ([4]; human, liver microsomes (pooled), pH 7.4, 37 °C) was 8 µL/min/mg, the half-life at 1 h ([4]; human, liver microsomes (pooled), pH 7.4, 37 °C, read-out: t1/2, human microsomes) was 91 min and the remaining at 1 h ([4]; human, liver microsomes (pooled), pH 7.4, after 1 h of incubation at 37 °C, read-out: % remaining compound, human microsomes) was 55%.
